Patent US20260042831A1, “METHODS OF TREATING SARCOIDOSIS WITH A TNF-A ANTIBODY AND ASSOCIATED COMPOSITIONS AND METHODS” (XENTRIA, INC., priority 2022, published 2026)
“Also recorded” adds a separate entry of the source. Like-named read-outs stand apart in the source and are kept apart here.

Experiments:
[1] = system: TNFα, IL-1β, IFNγ release; test: In vitro granuloma model of sarcoidosis: supernatant cytokine release (ELISA); conditions: 30 minutes pre-treatment, 7 days following PPD
Excerpt: (§1) PMBCs were exposed to either uncoated bead (UNC) or Mycobacterium tuberculosis (M. tb) antigen PPD-coated beads for 7 days. […] Following imaging, supernatant samples were collected and quantified for extracellular cytokine release using an enzyme-linked immunosorbent assay.

[2] = system: normal human tissues and human sarcoidosis tissue; test: Tissue cross-reactivity study (GLP, immunohistochemistry on cryosections); type: binding; conditions: for Tissues Showing Evidence of Staining: Sp2/0-Ag14 cells: negative control; for Tissues Showing Evidence of Staining: T3-33 (TNFα-expressing) cells: positive control, 5 and 20 μg/mL
Experimental: Human tonsil, human lung and lymph node with sarcoidosis, and human small intestine with Crohn's disease were also included in the study.
Samples from 1 to 3 separate donors from each of the listed tissues were evaluated. Fresh, unfixed tissue samples were placed into molds, filled with Tissue-Tek® OCT Compound, and frozen at −85 to −70° C. until sectioning. Sections were cut at approximately 5 μm and fixed in acetone for 10 minutes at room temperature. Human blood smears were stored at −85° to −70° C. until fixation and staining. XTMAB16 (primary antibody) was incubated overnight with biotinylated donkey anti-human IgG secondary labeled antibody. XTMAB16 and the control article, hIgG1, were tested at concentration of 5 and 20 μg/mL. Immunopathology was assessed by light microscopy.
The following human tissues were assessed in this cross-reactivity study: • 1. Positive Control: • Cryosections of T3-33 (TNFα-expressing) cells • 2. Negative Control: • Cryosections of Sp2/0-Ag14 cells • 3. Ancillary Controls: • Cryosections of human tonsil (mononuclear cells; 2 donors) • Cryosections of human small intestine with Crohn's disease (mononuclear cells; 1 donor) • Cryosections of human lung with sarcoidosis (mononuclear cells; 1 donor) • Cryosections of human lymph node with sarcoidosis (mononuclear cells; 1 donor)

[3] = system: PBMCs from subjects with active pulmonary sarcoidosis; test: In vitro granuloma model of sarcoidosis: granuloma formation (MIPAR area fraction)
Excerpt: as §1

[4] = system: transgenic TC (TgTC) mice (rheumatoid arthritis model); test: In vivo primary pharmacology: arthritis scores in TgTC mice; parameters: species or system mouse; conditions: for arthritis scores compared to vehicle control: Day 29 and Day 43 (p<0.01)
[5] = system: chronic refractory pulmonary sarcoidosis; conditions: low- and high-dose IV infusion, at 24 weeks; cited from earlier work
[6] = higher staining concentration (20 μg/mL), rare to occasional cells
[7] = lower staining concentration (5 μg/mL)

## XTMAB-16: a chimeric (human/murine) IgG1 mAb directed against TNFα
[1]
  granuloma cytokine release: significant dose-response effect
[2]; adrenal, bladder, cerebellum, cerebral cortex, cervix, kidney, large intestine, liver, lymph node, lung, striated muscle, nerve, ovary, pancreas, placenta, prostate, parathyroid, skin, small intestine, spleen, stomach, testis, thymus, tonsil, uterus
  Tissues Showing Evidence of Staining: Smooth myocytes: Cytoplasm of vascular and/or intrinsic smooth
[2]; ancillary controls
  Tissues Showing Evidence of Staining: mononuclear cells in human tonsil, small intestine with Crohn's disease, lung with sarcoidosis, lymph node with sarcoidosis: Ancillary control tissues (+)
[2]; binding observed at only the higher concentration in most tissues
  majority of non-mononuclear cell binding: low affinity
[2]; esophagus, Fallopian tube, kidney, lung (bronchioles), pancreas (acini), pituitary, salivary gland, skin (sweat glands), stomach (mucosa)
  Tissues Showing Evidence of Staining: Epithelial cells: Cytoplasm only of epithelial cells stained
[2]; higher concentration
  mononuclear cell staining intensity in normal human tissues: weak to strong or weak to moderate
[2]; [6]
  staining of membrane and cytoplasm of mononuclear cells in human tonsil: weakly to strongly stained
  staining of mononuclear cells in small intestine with Crohn's disease, lung with sarcoidosis, lymph node with sarcoidosis: weakly to strongly stained
[2]; kidney
  Tissues Showing Evidence of Staining: Glomerular tuft cells: Cytoplasm of renal glomerular tuft cells
[2]; lower concentration, versus higher concentration
  mononuclear cell staining in normal human tissues: comparable, reduced, or no staining
[2]; [7]
  staining of mononuclear cells in human tonsil: weak to strong and rare staining
  staining of mononuclear cells in small intestine with Crohn's disease, lung with sarcoidosis, lymph node with sarcoidosis: weak to moderate and rare staining
[2]; lymph node
  Tissues Showing Evidence of Staining: Endothelial cells: Cytoplasm of endothelial cells in the lymph node.
[2]; mammary gland
  Tissues Showing Evidence of Staining: Myoepithelial cells: Membrane and cytoplasm of myoepithelial cells
[2]
  Tissues Showing Evidence of Staining: Sp2/0-Ag14 cells: Negative control cryosections (−)
  Tissues Showing Evidence of Staining: T3-33 (TNFα-expressing) cells: Positive control cells (+)
[2]; listed as XTMAB16
  Tissues Showing Evidence of Staining: Sp2/0-Ag14 cells: did not react specifically
  Tissues Showing Evidence of Staining: T3-33 (TNFα-expressing) cells: weak to strong membrane and cytoplasmic staining
[2]; normal human bladder, cervix, esophagus, large intestine, liver (Kupffer cells), lymph node, lung, pancreas, placenta (Hofbauer cells), parathyroid, salivary gland, skin, small intestine, spleen, stomach, thyroid, thymus, tonsil, uterus
  Tissues Showing Evidence of Staining: Mononuclear cells: stained the membrane and cytoplasm; also recorded: Membrane and cytoplasm of resident, migrating,
[3]
  IC50 for decrease in granuloma area fraction: 5.197 µg/mL
[3]; 30 minutes pre-treatment (XTMAB-16 1 to 40 μg/mL; prednisone 1 to 10 μM), 7 days following PPD
  granuloma formation (area fraction): significantly attenuated; also recorded: significant dose-response effect
[3]; MIPAR area fraction, all subject samples, 7 days after PPD-coated beads
  IC50 for decrease in granuloma area fraction: 5.2 µg/mL
[4]; 20 mg/kg/dose on Days 1, 15, 29
  arthritis scores compared to vehicle control: statistically significant improvement
[4]; 40 mg/kg/dose on Days 1, 15, 29
  arthritis scores compared to vehicle control: statistically significant improvement
[4]; t test: p>0.05
  arthritis scores, 20 versus 40 mg/kg/dose: no significant differences

## Infliximab: a monoclonal antibody (mAb) targeting TNFα that is being used off-label to treat sarcoidosis
[5]
  increase in predicted forced vital capacity: 2.5%
